The values that follow come from patent US20250326799A1, “AGENTS INDUCING VASCULARISATION” (Coegin Pharma AB, priority 2022, published 2025).

“Also recorded” adds a separate entry of the source.

What all share (assay type): cell-based
The test system of assay [1] is Human umbilical cord endothelial cells (HUVECs). Briefly: BrdU cell proliferation in HUVECs. The following applies: for stimulation of endothelial cell proliferation (BrdU) after NRP-1 knock-down: HUVECs treated with siRNA-NC or siRNA for NRP-1, then peptide; for endothelial cell proliferation (DNA synthesis, uptake of BrdU, O.D. 450 nm): 10 nM, 100 nM, 1000 nM, compared to control; for proliferation of human umbilical vascular endothelial cells (BrdU uptake): addition of the peptide, increasing concentration. How it is done: Cell proliferation was evaluated with BrdU Cell Proliferation Elisa Kit (Abcam, UK). After incubation at 37° C. overnight with respective complete medium, for NRP-1 knock down-relative experiments, HUVECs and HCASMCs on 96-well plates were transfected with siRNA/siRNA-NC directly; for test polypeptide stimulations, HUVECs and HCASMCs were starved with low-serum condition for additional 24 hours and 48 hours before treatments. At 32 hours after transfection or polypeptide stimulations, cells were cultured with BrdU reagent for another 16 hours to determine cell proliferation. Subsequent steps were performed as manufacturer's instructions and data were read by Wallac 1420 Victor 2 (Perkin Elmer, USA).
For stimulation of endothelial cell proliferation, human umbilical cord endothelial cells were first treated with a scramble non-coding siRNA (NC) or siRNA for NRP-1, subsequently they were treated with FOL26 in concentrations of 10 nM, 100 nM, and 1000 nM, and DNA synthesis analyzed by measuring the uptake of BrdU.
(§1) The impact of FOL-026 peptide on human umbilical vascular endothelial cells (HUVECs) proliferation (FIG. 18a) and apoptosis (FIG. 18c) induced with low-oxygen condition was determined by BrdU uptake (n=8-9 per group) and active caspase-3/-7 (n=7-10 per group) separately. The ROS level (FIG. 18b) activated by 50 ug/ml oxidized Low-density Lipoprotein (oxLDL) for 2 hours in cells pre-incubated with FOL-026 peptides was assessed using H2O2 measurement (n=4-8 per group). Representative pictures of endothelial migration into an in vitro scratch injury were shown (FIG. 19a) and the wound closure rate (FIG. 19b) in HUVECs stimulated with increasing concentration of FOL-026 peptide was quantified by image J software (n=8-9 per group). Scale bar=150 um. Data are presented as means±SEM and acquired from 3 to 4 independent replicate tests. *P<0.05, **P<0.01, ****P<0.0001 by one-way ANOVA and Dunnett's post-hoc test.
(§2) The efficiency of small interfering RNA transfection for 48 hours in HUVECs was confirmed by qRT-PCR (n=4) (FIG. 22a). Effect of FOL-026 peptide stimulation on cell proliferation (FIG. 22b) and cell apoptosis at 0.1% oxygen (FIG. 22c) in HUVECs transfected with siRNA-NC or siNRP-1 was evaluated by BrdU incorporation (n=4-7 per group) and active caspase-3/-7 ((n=4-7 per group). Representative pictures of endothelial cells at 0 and 5 hours after scratch wounding are shown in 23a. The wound closure rate (FIG. 23b) of siRNA-NC/siNRP-1-transfected HUVECs stimulated with increasing concentration of FOL-026 peptide was quantified by image J software (n=9-12 per group). Scale bar=150 um. Data are presented as means±SEM and acquired from 3 to 4 independent replicate tests. *P<0.05, **P<0.01, ***P<0.001, ****P<0.0001 by Student's t test for A, two-way ANOVA followed with Sidak's and Dunnett's multiple comparisons test for B, C and E.
The endothelial cell proliferation (FIG. 29a) was assessed with BrdU uptake in human umbilical vascular endothelial cells (HUVECs) stimulated with increasing concentration of FOL-005 peptide for 48 hours (n=7-10 per group).

Assay [2] concerns human coronary artery smooth muscle cells (HCASMCs). Briefly: sFasL-induced apoptosis, caspase 3 and 7 activation, HCASMCs. The settings on record: 10 nM, 100 nM, 1000 nM. How it is done: Human Umbilical Vein Endothelial Cells (HUVECs) and Human Coronary Artery Smooth Muscle Cells (HCASMCs) were purchased from Thermo Fisher. Cells were grown in Medium 200 containing 2% Low Serum Growth Supplement and Medium 231 with 5% Smooth Muscle Growth Supplement (Invitrogen, CA, USA) respectively with addition of Antibiotic-Antimycotic (1%, Invitrogen, CA, USA). Test polypeptide and sFasL (PeproTech, NJ, USA) were dissolved in the respective complete medium.
Caspase-Glo 3/7 Assay (Promega, USA) was performed to evaluate cell apoptosis. HUVECs and HCASMCs were seeded into 96-well plates at a density of 3-5×10^3 per well. For additional NRP-1 on cells transfected siRNA, NRP-1 was added 24 hours after transfection and the mixture of Caspase-Glo 3/7 was added 48 hours after polypeptide stimulations. Subsequent steps were performed as manufacturer's instructions using the FOL26 and FOL56 as test compounds. Data were read by Wallac 1420 Victor 2 (Perkin Elmer, USA).

For assay [3], the system named is human umbilical vascular endothelial cells (HUVECs). Briefly: In vitro scratch wound closure, HUVECs. The settings on record: for wound closure rate (scratch injury): HUVECs, increasing concentration of peptide. How it is done:
as §1, §2
The effect of FOL-005 peptide on smooth muscle cell proliferation (FIG. 30a) was determined with BrdU incorporation in peptide-treated human coronary smooth muscle cells (HCASMCs). […]

For the sequence VDTYDGGISVVYGLR [FOL-026], the “stimulation of endothelial cell proliferation (BrdU) after NRP-1 knock-down” value in assay [1] is given as “blocks the effect”; in assay [1] (listed as FOL26) it was “NRP-1 dependent”. The “endothelial cell proliferation (DNA synthesis, uptake of BrdU, O.D. 450 nm)” value in assay [1] (HUVECs, listed as FOL26) was “significant increase in proliferation; also recorded: increase in O.D. (450 nm)”. Besides, the “BrdU uptake after siRNA for NRP-1” value in assay [1] (HUVECs, 10 and 100 nM) is on record as “reduction”. The “proliferation of human umbilical vascular endothelial cells (BrdU uptake)” value in assay [1] (HUVECs) is “increases”. Also, the “sFasL-induced apoptosis (caspase 3 and 7)” value in assay [2] (listed as FOL26) is “reduced sFasL-induced apoptosis; also recorded: capable of reversing the sFasL-induced apoptosis”. Further, in assay [3], the “wound closure rate (scratch injury)” value is on record as “accelerates HUVEC wound closure”. Also, the “wound closure rate after NRP-1 knock-down” value in assay [3] (siRNA-NC/siNRP-1-transfected HUVECs, increasing concentration, 5 hours) is on record as “positive effect on wound closure”.

AEIDSIELSYGIK [FOL56]: in assay [1] (HUVECs), the “endothelial cell proliferation (DNA synthesis, uptake of BrdU, O.D. 450 nm)” value is listed as “significant increase in proliferation; also recorded: increases proliferation at all concentrations”. Also, in assay [2], the “sFasL-induced apoptosis (caspase 3 and 7)” value is “reduced sFasL-induced apoptosis; also recorded: capable of inhibiting, or trended towards inhibiting apoptosis”.

For the sequence VDTYDGDISVVYGLR [FOL-005], in assay [1] (HUVECs), the “proliferation of human umbilical vascular endothelial cells (BrdU uptake)” value is recorded as “increases”. Also, in assay [3], the “wound closure rate (scratch injury)” value is recorded as “accelerate HUVEC wound closure”.
